Like-named read-outs stand apart in the source and are kept apart here.
What was measured:
Format in all cases: biochemical
FGFR1 = FGFR1 (Homo sapiens (Human), UniProt P11362); assay: FGFR enzymatic assay (FRET peptide phosphorylation), FGFR1
In short: (§1)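 Recombinant kinase was pre-incubated 5–10 min with serially diluted inhibitor in HEPES buffer (10 mM MgCl2, 5 mM DTT, pH 7.5; buffer described for FGFR3). Peptide phosphorylation ran 1 h at 25 °C and was detected by FRET after ~1 h equilibration. IC50 values come from variable-slope sigmoidal fits.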

FGFR2 = FGFR2 (Homo sapiens (Human), UniProt P21802); assay: FGFR enzymatic assay (FRET peptide phosphorylation), FGFR2
In short: as §1

FGFR3 = FGFR3 (Homo sapiens (Human), UniProt P22607); assay: FGFR enzymatic assay (FRET peptide phosphorylation), FGFR3
In short: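 FRET assay of peptide phosphorylation by FGFR3 in HEPES pH 7.5 buffer with MgCl2, EGTA, Tween-20 and DTT. Enzyme was pre-incubated 5-10 min with compound, and the reaction ran 1 hr at 25° C. IC50 came from a variable-slope sigmoidal fit.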

[1] = FGFR1 enzyme 0.02 nM, ATP 210 μM
[2] = FGFR2 enzyme 0.01 nM, ATP 100 μM
[3] = FGFR3 enzyme (Millipore), ATP 140 μM

Measured: IC50

Sequence of FGFR2 (P21802 22-821): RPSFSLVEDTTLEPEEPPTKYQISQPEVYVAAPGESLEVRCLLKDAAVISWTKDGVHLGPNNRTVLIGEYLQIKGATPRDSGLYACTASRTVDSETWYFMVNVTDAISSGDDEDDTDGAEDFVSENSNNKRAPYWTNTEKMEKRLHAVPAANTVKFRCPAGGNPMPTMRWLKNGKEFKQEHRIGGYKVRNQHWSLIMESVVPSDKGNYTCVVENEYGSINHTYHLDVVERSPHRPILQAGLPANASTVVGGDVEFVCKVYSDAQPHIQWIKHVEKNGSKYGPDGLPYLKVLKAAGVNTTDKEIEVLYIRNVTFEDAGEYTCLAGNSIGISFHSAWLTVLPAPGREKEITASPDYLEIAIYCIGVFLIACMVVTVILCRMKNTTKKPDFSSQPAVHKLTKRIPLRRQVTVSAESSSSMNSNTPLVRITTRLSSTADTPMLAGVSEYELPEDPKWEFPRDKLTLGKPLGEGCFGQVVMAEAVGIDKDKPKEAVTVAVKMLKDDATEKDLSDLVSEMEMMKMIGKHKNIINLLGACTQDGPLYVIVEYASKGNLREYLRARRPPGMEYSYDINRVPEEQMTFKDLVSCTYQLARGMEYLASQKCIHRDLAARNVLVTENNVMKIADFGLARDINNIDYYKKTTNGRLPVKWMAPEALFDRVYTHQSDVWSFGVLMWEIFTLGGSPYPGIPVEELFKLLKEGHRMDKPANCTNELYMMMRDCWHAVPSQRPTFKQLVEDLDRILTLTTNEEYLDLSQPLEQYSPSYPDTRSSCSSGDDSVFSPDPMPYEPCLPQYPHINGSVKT
Sequence of FGFR1 (P11362 22-822): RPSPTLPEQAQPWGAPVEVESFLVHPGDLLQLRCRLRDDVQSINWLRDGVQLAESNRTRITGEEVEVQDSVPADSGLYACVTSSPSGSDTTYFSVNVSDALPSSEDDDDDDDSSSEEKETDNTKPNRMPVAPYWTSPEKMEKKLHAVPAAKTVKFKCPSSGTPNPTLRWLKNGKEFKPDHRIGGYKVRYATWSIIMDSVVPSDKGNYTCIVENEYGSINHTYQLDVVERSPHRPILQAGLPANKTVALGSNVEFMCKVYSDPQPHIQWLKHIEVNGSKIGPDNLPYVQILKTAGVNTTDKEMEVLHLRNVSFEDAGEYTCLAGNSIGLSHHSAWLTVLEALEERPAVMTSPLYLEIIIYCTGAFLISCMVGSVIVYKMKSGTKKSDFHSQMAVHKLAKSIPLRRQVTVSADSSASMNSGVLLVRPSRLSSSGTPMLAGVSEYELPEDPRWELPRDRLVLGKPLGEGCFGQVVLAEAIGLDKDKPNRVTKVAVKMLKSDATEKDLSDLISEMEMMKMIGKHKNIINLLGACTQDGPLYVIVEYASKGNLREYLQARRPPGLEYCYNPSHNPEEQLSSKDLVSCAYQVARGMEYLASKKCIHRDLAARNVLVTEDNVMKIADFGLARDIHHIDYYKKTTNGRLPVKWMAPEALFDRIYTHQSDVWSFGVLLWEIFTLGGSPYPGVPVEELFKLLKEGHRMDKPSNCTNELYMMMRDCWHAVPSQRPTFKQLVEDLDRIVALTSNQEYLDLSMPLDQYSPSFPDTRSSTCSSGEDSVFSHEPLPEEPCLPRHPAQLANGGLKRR
Sequence of FGFR3 (P22607 23-806): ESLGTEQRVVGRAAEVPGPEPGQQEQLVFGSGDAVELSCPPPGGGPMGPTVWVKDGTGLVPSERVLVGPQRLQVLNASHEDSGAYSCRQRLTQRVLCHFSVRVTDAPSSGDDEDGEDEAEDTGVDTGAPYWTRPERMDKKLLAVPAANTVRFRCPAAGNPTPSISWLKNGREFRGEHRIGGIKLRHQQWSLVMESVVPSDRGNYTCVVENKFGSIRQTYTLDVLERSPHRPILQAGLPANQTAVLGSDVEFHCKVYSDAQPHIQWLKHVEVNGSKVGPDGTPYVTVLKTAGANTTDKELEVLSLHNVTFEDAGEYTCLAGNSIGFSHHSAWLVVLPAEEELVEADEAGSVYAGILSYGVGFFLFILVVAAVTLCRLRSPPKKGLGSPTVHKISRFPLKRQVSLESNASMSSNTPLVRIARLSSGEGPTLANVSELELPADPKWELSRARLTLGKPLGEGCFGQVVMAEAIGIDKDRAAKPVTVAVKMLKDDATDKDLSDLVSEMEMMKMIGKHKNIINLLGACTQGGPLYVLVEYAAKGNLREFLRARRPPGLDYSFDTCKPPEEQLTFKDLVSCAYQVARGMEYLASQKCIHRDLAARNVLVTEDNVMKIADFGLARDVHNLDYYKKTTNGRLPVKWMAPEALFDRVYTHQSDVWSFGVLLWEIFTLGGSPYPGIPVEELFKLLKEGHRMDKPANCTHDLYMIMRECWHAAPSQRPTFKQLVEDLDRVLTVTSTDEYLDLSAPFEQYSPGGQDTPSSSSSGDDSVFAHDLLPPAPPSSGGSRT

COc1cc(OC)c(F)c(N2Cc3cnc4[nH]c(CN5CCN(CCC#N)CC5)cc4c3N(C)C2=O)c1F [Example 131, 3-(4-{[3-(2,6-difluoro-3,5-dimethoxyphenyl)-1-methyl-2-oxo-2,3,4,7-tetrahydro-1H-pyrrolo[3′,2′:5,6]pyrido[4,3-d]pyrimidin-8-yl]methyl}piperazin-1-yl)propanenitrile]
< 100 nM: FGFR1; [1] | FGFR2; [2] | FGFR3; [3]

COc1cc(OC)c(F)c(N2Cc3cnc4[nH]c(CN5CCC(C#N)CC5)cc4c3N(C)C2=O)c1F [Example 132, 1-{[3-(2,6-difluoro-3,5-dimethoxyphenyl)-1-methyl-2-oxo-2,3,4,7-tetrahydro-1H-pyrrolo[3′,2′:5,6]pyrido[4,3-d]pyrimidin-8-yl]methyl}piperidine-4-carbonitrile]
< 100 nM: FGFR1; [1] | FGFR2; [2] | FGFR3; [3]

COc1cc(OC)c(F)c(N2Cc3cnc4[nH]c(CN5CC[C@H](C#N)C5)cc4c3N(C)C2=O)c1F [Example 133, (3S)-1-{[3-(2,6-difluoro-3,5-dimethoxyphenyl)-1-methyl-2-oxo-2,3,4,7-tetrahydro-1H-pyrrolo[3′,2′:5,6]pyrido[4,3-d]pyrimidin-8-yl]methyl}pyrrolidine-3-carbonitrile]
< 100 nM: FGFR1; [1] | FGFR2; [2] | FGFR3; [3]

COc1cc(OC)c(F)c(N2Cc3cnc4[nH]c(CNC5CCN(C)CC5)cc4c3N(C)C2=O)c1F [Example 134, 3-(2,6-difluoro-3,5-dimethoxyphenyl)-1-methyl-8-{[(1-methylpiperidin-4-yl)amino]methyl}-1,3,4,7-tetrahydro-2Hpyrrolo[3′,2′:5,6]pyrido[4,3-d]pyrimidin-2-one]
< 100 nM: FGFR1; [1] | FGFR2; [2] | FGFR3; [3]

COc1cc(OC)c(F)c(N2Cc3cnc4[nH]c(CN[C@H]5CCOC5)cc4c3N(C)C2=O)c1F [Example 135, 3-(2,6-difluoro-3,5-dimethoxyphenyl)-1-methyl-8-{[(3S)-tetrahydrofuran-3-ylamino]methyl}-1,3,4,7-tetrahydro-2Hpyrrolo[3′,2′:5,6]pyrido[4,3-d]pyrimidin-2-one]
< 100 nM: FGFR1; [1] | FGFR2; [2] | FGFR3; [3]

COc1cc(OC)c(F)c(N2Cc3cnc4[nH]c(CN[C@@H]5CCOC5)cc4c3N(C)C2=O)c1F [Example 136, 3-(2,6-difluoro-3,5-dimethoxyphenyl)-1-methyl-8-{[(3R)-tetrahydrofuran-3-ylamino]methyl}-1,3,4,7-tetrahydro-2Hpyrrolo[3′,2′:5,6]pyrido[4,3-d]pyrimidin-2-one]
< 100 nM: FGFR1; [1] | FGFR2; [2] | FGFR3; [3]

COc1cc(OC)c(F)c(N2Cc3cnc4[nH]c(Cn5ccnc5)cc4c3N(C)C2=O)c1F [Example 137, 3-(2,6-difluoro-3,5-dimethoxyphenyl)-8-(1H-imidazol-1-ylmethyl)-1-methyl-1,3,4,7-tetrahydro-2H-pyrrolo[3′,2′:5,6]pyrido[4,3-d]pyrimidin-2-one]
< 100 nM: FGFR1; [1] | FGFR2; [2] | FGFR3; [3]

COc1cc(OC)c(F)c(N2Cc3cnc4[nH]c(Cn5cccn5)cc4c3N(C)C2=O)c1F [Example 138, 3-(2,6-difluoro-3,5-dimethoxyphenyl)-1-methyl-8-(1H-pyrazol-1-ylmethyl)-1,3,4,7-tetrahydro-2H-pyrrolo[3′,2′:5,6]pyrido[4,3-d]pyrimidin-2-one]
< 100 nM: FGFR1; [1] | FGFR2; [2] | FGFR3; [3]

COc1cc(OC)c(F)c(N2Cc3cnc4[nH]c(Cc5cnn(C)c5)cc4c3N(C)C2=O)c1F [Example 139, 3-(2,6-difluoro-3,5-dimethoxyphenyl)-1-methyl-8-[(1-methyl-1H-pyrazol-4-yl)methyl]-1,3,4,7-tetrahydro-2H-pyrrolo[3′,2′:5,6]pyrido[4,3-d]pyrimidin-2-one]
< 100 nM: FGFR1; [1] | FGFR2; [2] | FGFR3; [3]

COc1cc(OC)c(F)c(N2Cc3cnc4[nH]c(CCc5ccccn5)cc4c3N(C)C2=O)c1F [Example 140, 3-(2,6-difluoro-3,5-dimethoxyphenyl)-1-methyl-8-(2-pyridin-2-ylethyl)-1,3,4,7-tetrahydro-2H-pyrrolo[3′,2′:5,6]pyrido[4,3-d]pyrimidin-2-one]
< 100 nM: FGFR1; [1] | FGFR2; [2] | FGFR3; [3]

CCN1C(=O)N(c2c(F)c(OC)cc(OC)c2Cl)Cc2cnc3[nH]c(CN4CCOCC4)cc3c21 [Example 141, 3-(2-chloro-6-fluoro-3,5-dimethoxyphenyl)-1-ethyl-8-(morpholin-4-ylmethyl)-1,3,4,7-tetrahydro-2H-pyrrolo[3′,2′:5,6]pyrido[4,3-d]pyrimidin-2-one]
< 100 nM: FGFR1; [1] | FGFR2; [2] | FGFR3; [3]

COc1cc(OC)c(F)c(N2Cc3cnc4[nH]c(CCN5CC(F)C5)cc4c3N(C)C2=O)c1F [Example 143, 3-(2,6-difluoro-3,5-dimethoxyphenyl)-8-[2-(3-fluoroazetidin-1-yl)ethyl]-1-methyl-1,3,4,7-tetrahydro-2Hpyrrolo[3′,2′:5,6]pyrido[4,3-d]pyrimidin-2-one]
< 100 nM: FGFR1; [1] | FGFR2; [2] | FGFR3; [3]

COc1cc(OC)c(F)c(N2Cc3cnc4[nH]c(CCN5CC(OC)C5)cc4c3N(C)C2=O)c1F [Example 144, 3-(2,6-difluoro-3,5-dimethoxyphenyl)-8-[2-(3-methoxyazetidin-1-yl)ethyl]-1-methyl-1,3,4,7-tetrahydro-2Hpyrrolo[3′,2′:5,6]pyrido[4,3-d]pyrimidin-2-one]
< 100 nM: FGFR1; [1] | FGFR2; [2] | FGFR3; [3]

COc1cc(OC)c(Cl)c(N2Cc3cnc4[nH]ncc4c3N(c3cnn(C)c3)C2=O)c1F [Example 145, 3-(2-chloro-6-fluoro-3,5-dimethoxyphenyl)-1-(1-methyl-1H-pyrazol-4-yl)-1,3,4,7-tetrahydro-2H-pyrazolo[4′,3′:5,6]pyrido[4,3-d]pyrimidin-2-one]
< 100 nM: FGFR1; [1] | FGFR2; [2] | FGFR3; [3]

COc1cc(OC)c(F)c(N2Cc3cnc4[nH]c(CCN5CCOCC5)cc4c3N(CCO)C2=O)c1F [Example 146, 3-(2,6-difluoro-3,5-dimethoxyphenyl)-1-(2-hydroxyethyl)-8-(2-morpholin-4-ylethyl)-1,3,4,7-tetrahydro-2H-pyrrolo[3′,2′:5,6]pyrido[4,3-d]pyrimidin-2-one]
< 100 nM: FGFR1; [1] | FGFR2; [2] | FGFR3; [3]

COc1cc(OC)c(F)c(N2Cc3cnc4c(c3N(c3ncccc3Cl)C2=O)CC(=O)N4)c1F [Example 147, 1-(3-chloropyridin-2-yl)-3-(2,6-difluoro-3,5-dimethoxyphenyl)-3,4,7,9-tetrahydro-1H-pyrrolo[3′,2′:5,6]pyrido[4,3-d]pyrimidine-2,8-dione]
< 100 nM: FGFR1; [1] | FGFR2; [2] | FGFR3; [3]

COc1cc(OC)c(F)c(N2Cc3cnc4[nH]ccc4c3C3(CCC3)C2=O)c1F [Example 148, 7′-(2,6-difluoro-3,5-dimethoxyphenyl)-6′,7′-dihydrospiro[cyclobutane-1,9′-pyrrolo[2,3-c][2,7]naphthyridin]-8′(3′H)-one]
< 100 nM: FGFR1; [1] | FGFR2; [2] | FGFR3; [3]

COc1cc(OC)c(F)c(N2Cc3cnc4[nH]ccc4c3C3(CCCC3)C2=O)c1F [Example 149, 7′-(2,6-difluoro-3,5-dimethoxyphenyl)-6′,7′-dihydrospiro[cyclopentane-1,9′-pyrrolo[2,3-c][2,7]naphthyridin]-8′(3′H)-one]
< 100 nM: FGFR1; [1] | FGFR2; [2] | FGFR3; [3]

COc1cc(OC)c(F)c(N2Cc3cnc4[nH]ccc4c3C3(CCOCC3)C2=O)c1F [Example 150, 7′-(2,6-difluoro-3,5-dimethoxyphenyl)-2,3,5,6,6′,7′-hexahydrospiro[pyran-4,9′-pyrrolo[2,3-c][2,7]naphthyridin]-8′(3′H)-one]
< 100 nM: FGFR1; [1] | FGFR2; [2] | FGFR3; [3]

COc1cc(OC)c(F)c(N2Cc3cnc4[nH]ccc4c3C3(CCN(C)CC3)C2=O)c1F [Example 151, 7′-(2,6-difluoro-3,5-dimethoxyphenyl)-1-methyl-6′,7′-dihydrospiro[piperidine-4,9′-pyrrolo[2,3-c][2,7]naphthyridin]-8′(3′H)-one]
< 100 nM: FGFR1 | FGFR2 | FGFR3

COc1cc(OC)c(F)c(N2Cc3cnc4[nH]c(CN5CCOCC5)cc4c3C(C)(C)C2=O)c1F [Example 152, 7-(2,6-difluoro-3,5-dimethoxyphenyl)-9,9-dimethyl-2-(morpholin-4-ylmethyl)-3,6,7,9-tetrahydro-8H-pyrrolo[2,3-c]-2,7-naphthyridin-8-one]
< 100 nM: FGFR1; [1] | FGFR2; [2] | FGFR3; [3]

COc1cc(OC)c(F)c(N2Cc3cnc4[nH]c(CN5CCN(C)CC5)cc4c3C(C)(C)C2=O)c1F [Example 153, 7-(2,6-difluoro-3,5-dimethoxyphenyl)-9,9-dimethyl-2-[(4-methylpiperazin-1-yl)methyl]-3,6,7,9-tetrahydro-8H-pyrrolo[2,3-c]-2,7-naphthyridin-8-one]
< 100 nM: FGFR1; [1] | FGFR2; [2] | FGFR3; [3]

CCN1CCN(Cc2cc3c4c(cnc3[nH]2)CN(c2c(F)c(OC)cc(OC)c2F)C(=O)C4(C)C)CC1 [Example 154, 7-(2,6-difluoro-3,5-dimethoxyphenyl)-2-[(4-ethylpiperazin-1-yl)methyl]-9,9-dimethyl-3,6,7,9-tetrahydro-8H-pyrrolo[2,3-c]-2,7-naphthyridin-8-one]
< 100 nM: FGFR1; [1] | FGFR2; [2] | FGFR3; [3]

— patent US9611267B2, “Substituted tricyclic compounds as FGFR inhibitors” (Incyte Corporation, priority 2012, dated 2017)
